A word on the IC50: it is the concentration that inhibits the measured activity by half.

These results are taken from patent US11149021B2, “N-(azaaryl)cyclolactam-1-carboxamide derivative, preparation method therefor, and use thereof” (Abbisko Therapeutics Co., Ltd., priority 2017, dated 2021).

Structures are written as SMILES. Read-outs that look alike come from different tables or passages of the source.

One experiment concerns the target T1, CSF-1R (Homo sapiens, UniProt P07333).
T1 construct: 3.95 nM of CSF-1R, 500 μM of ATP
Put plainly: CSF-1R in vitro biochemical kinase study (ADP-Glo assay). Background: ADP-Glo first removes unused ATP, then detects ADP through luciferase.

For experiment [1], the system named is M-NFS-60 mouse myeloid leukemia lymphocytes. Description: CSF-1R cell proliferation study (Cell Titer Glo).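 Further: M-CSF-driven proliferation, viable cells quantified as ATP by luminescence, compounds tested as 3-fold serial dilutions, values from four-parameter curve fits.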 Conditions: Lymphocyte, 72 h. Format: cell-based. In general terms: In ATP-based viability assays light output follows the ATP content of the culture.
Experimental: Functional effects of compounds on cell proliferation were evaluated by using Cell Titer Glo (CTG) study in the present invention. […] Since ATP is an index for viable cell metabolism, CTG (Promega, #G7573) reagent is a homogeneous detection method for detecting the number of viable cells in the culture by quantifying ATP. Therefore, compound-mediated inhibition for cell proliferation/survival was evaluated by quantifying ATP content in cells, and the specific experimental process was as follows:
3. 10 μL of culture medium containing M-CSF with 10-fold of the final concentration was then added to each well;
4. dosage effect was evaluated by testing the 3-fold serial dilutions of the compound;
5. after the cells were incubated for 3 days at 37° C. and 5% CO2, the inhibition on cell survival was quantified after 50 μL of CTG was added and the luminescence assay was performed;
6. the compound concentration leading to half maximal inhibitory (IC50) and the compound concentration leading to absolute half maximal inhibitory (Absolute IC50) was measured by a plate reader (M1000, Tecan) and a four-parameter curve fit in Graphpad Prism 7.
The mark [2] stands for this setting: read-out: Cytological experiment CS1-1R Absolute IC50 (nM).
The mark [3] stands for this setting: read-out: Cytological experiment CSF-1R IC50 (nM).
Where [4] appears, read: M-NFS-60 cells, M-CSF, 3 days, CTG, * = average of multiple tests, read-out: Cytological experiment CSF-1R IC50.
[5] abbreviates: M-NFS-60 cells, M-CSF, 3 days, CTG, absolute half maximal inhibition, * = average of multiple tests, read-out: Cytological experiment CS1-1R Absolute IC50.

T1 sequence (P07333 20-972): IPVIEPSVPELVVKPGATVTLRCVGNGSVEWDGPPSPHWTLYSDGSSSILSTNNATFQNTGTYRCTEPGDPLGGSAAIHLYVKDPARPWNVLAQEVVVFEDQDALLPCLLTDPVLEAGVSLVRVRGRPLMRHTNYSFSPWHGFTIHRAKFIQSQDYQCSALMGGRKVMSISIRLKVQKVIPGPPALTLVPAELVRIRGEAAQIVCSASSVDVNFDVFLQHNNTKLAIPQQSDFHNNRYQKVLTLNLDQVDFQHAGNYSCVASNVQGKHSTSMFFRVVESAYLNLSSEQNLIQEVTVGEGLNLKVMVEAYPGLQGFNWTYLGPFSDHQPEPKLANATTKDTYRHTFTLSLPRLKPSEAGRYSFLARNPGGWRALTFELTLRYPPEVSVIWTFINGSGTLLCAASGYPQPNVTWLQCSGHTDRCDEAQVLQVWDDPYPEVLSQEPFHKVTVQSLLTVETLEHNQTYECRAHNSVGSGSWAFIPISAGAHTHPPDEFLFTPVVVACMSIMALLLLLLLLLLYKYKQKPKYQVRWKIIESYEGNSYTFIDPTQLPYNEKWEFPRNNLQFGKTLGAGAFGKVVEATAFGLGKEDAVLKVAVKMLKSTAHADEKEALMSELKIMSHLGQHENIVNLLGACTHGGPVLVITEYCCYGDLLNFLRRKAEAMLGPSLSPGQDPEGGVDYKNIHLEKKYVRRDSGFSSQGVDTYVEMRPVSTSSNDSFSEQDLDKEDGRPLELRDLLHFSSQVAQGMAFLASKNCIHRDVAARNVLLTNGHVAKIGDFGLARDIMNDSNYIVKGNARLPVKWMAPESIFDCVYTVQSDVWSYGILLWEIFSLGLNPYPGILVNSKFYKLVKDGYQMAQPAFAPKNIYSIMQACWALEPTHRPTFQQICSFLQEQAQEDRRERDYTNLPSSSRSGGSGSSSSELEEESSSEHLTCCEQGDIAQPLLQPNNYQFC

Compound `Cc1nc(NC(=O)N2CCC(C)(C)C2=O)ccc1Oc1ccnc(-c2cnn(CC(C)(C)O)c2)c1` [Example 16, N-(5-((2-(1-(2-hydroxy-2-methylpropyl)-1H-pyrazol-4-yl)pyridin-4-yl)oxy)-6-methylpyridin-2-yl)-3,3-dimethyl-2-oxopyrrolidine-1-carboxamide] had a 50% inhibitory concentration (IC50) against CSF-1R of 230 nM.

As for `Cc1nc(NC(=O)N2CCC(C)(C)C2=O)ccc1Oc1ccnc(-c2cnn(CCN3CCOCC3)c2)c1` [Example 8, 3,3-dimethyl-N-(6-methyl-5-((2-(1-(2-morpholinoethyl)-1H-pyrazol-4-yl)pyridin-4-yl)oxy)pyridin-2-yl)-2-oxopyrrolidine-1-carboxamide], the IC50 was determined as 110 nM in experiment [1] (setting [2]), 148 nM in experiment [1] (setting [3]) and 57.9 nM against CSF-1R.

For the compound `Cc1nc(NC(=O)N2CCC(C)(C)C2=O)ccc1Oc1ccnc(NC(=O)C2CCN(C)CC2)c1` [Example 25, N-(4-((6-(3,3-dimethyl-2-oxopyrrolidine-1-carboxamido)-2-methylpyridin-3-yl)oxy)pyridin-2-yl)-1-methylpiperidine-4-carboxamide], the figures for the IC50 (in experiment [1] (setting [2]); in experiment [1] (setting [3]); against CSF-1R) were 1990 nM, 1920 nM and 1120 nM, respectively.

`Cc1nc(NC(=O)N2CCC(C)(C)C2=O)ccc1Oc1ccnc(NC(=O)C2CC2)c1` [Example 26, N-(5-((2-(cyclopropane-carboxamido)pyridin-4-yl)oxy)-6-methylpyridin-2-yl)-3,3-dimethyl-2-oxopyrrolidine-1-carboxamide]: the 50% inhibitory concentration (IC50) was found to be 157 nM in experiment [1] (setting [2]), 161 nM in experiment [1] (setting [3]) and 75.2 nM on CSF-1R.

In the case of `Cc1nc(NC(=O)N2CCC(C)(C)C2=O)ccc1Oc1ccnc(-c2cnn(C(C)C)c2)c1` [Example 13, N-(5-((2-(1-isopropyl-1H-pyrazol-4-yl)pyridin-4-yl)oxy)-6-methylpyridin-2-yl)-3,3-dimethyl-2-oxopyrrolidine-1-carboxamide], the figures for the IC50 (in experiment [1] (setting [2]); in experiment [1] (setting [3]); against CSF-1R) were 245 nM, 263 nM and 99.7 nM, respectively.

As to `COCCC1(C)CCN(C(=O)Nc2ccc(Oc3ccnc(-c4cnn(C)c4)c3)c(C)n2)C1=O` (stereo not shown) [Example 37, 3-(2-methoxyethyl)-3-methyl-N-(6-methyl-5-((2-(1-methyl-1H-pyrazol-4-yl)pyridine-4-yl)oxy)pyridin-2-yl)-2-oxopyrrolidine-1-carboxamide], the 50% inhibitory concentration (IC50) in experiment [1] (setting [2]) amounted to 140 nM; in experiment [1] (setting [3]), 141 nM; on CSF-1R it was 207 nM.

As for `Cc1nc(NC(=O)N2CCC(C)(C)C2=O)ccc1Oc1ccnc(-c2cn(C)cn2)c1` [Example 19, 3,3-dimethyl-N-(6-methyl-5-((2-(1-methyl-1H-imidazol-4-yl)pyridin-4-yl)oxy)pyridin-2-yl)-2-oxopyrrolidine-1-carboxamide], the figures for the IC50 (in experiment [1] (setting [2]); in experiment [1] (setting [3]); against CSF-1R) were 647 nM, 644 nM and 176 nM, respectively.

`Cc1cc(-c2cc(Oc3ccc(NC(=O)N4CCC(C)(C)C4=O)nc3C)ccn2)ccn1` [Example 4, 3,3-dimethyl-N-(6-methyl-5-((2′-methyl-[2,4′-bipyridin]-4-yl)oxy)pyridin-2-yl)-2-oxopyrrolidine-1-carboxamide]: the results for the IC50 (in experiment [1] (setting [2]); in experiment [1] (setting [3]); at CSF-1R) were 213 nM, 216 nM and 42.9 nM, respectively.

With `CNC(=O)c1cc(Oc2ccc(NC(=O)N3CCC(C)(C)C3=O)nc2C)ccn1` [Example 27, 4-((6-(3,3-dimethyl-2-oxopyrrolidine-1-carboxamido)-2-methylpyridin-3-yl)oxy)-N-methylpicolinamide], the IC50 was determined as 441 nM in experiment [1] (setting [2]), 487 nM in experiment [1] (setting [3]) and 135 nM at CSF-1R.

Consider `[2H]C([2H])([2H])n1cc(-c2cc(Oc3ccc(NC(=O)N4CCCC(C)(C)C4=O)nc3C)ccn2)cn1` [Example 39, 3,3-dimethyl-N-(6-methyl-5-((2-(1-(methyl-d3)-1H-pyrazol-4-yl)pyridin-4-yl)oxy)pyridin-2-yl)-2-oxopiperidine-1-carboxamide], for which the values for the IC50 (in experiment [1] (setting [2]); in experiment [1] (setting [3]); on CSF-1R) were 35 nM, 48.3 nM and 20.2 nM, respectively.

With `CCCC1(CCC)CCN(C(=O)Nc2ccc(Oc3ccnc(-c4cnn(C)c4)c3)c(C)n2)C1=O` [Example 30, N-(6-methyl-5-((2-(1-methyl-1H-pyrazol-4-yl)pyridin-4-yl)oxy)pyridin-2-yl)-2-oxo-3,3-dipropylpyrrolidine-1-carboxamide], the IC50 turned out to be 1160 nM in experiment [1] (setting [2]), 1380 nM in experiment [1] (setting [3]) and 98.3 nM at CSF-1R.

`Cc1nc(NC(=O)N2CCC(C)(C)C2=O)ccc1Oc1ccnc(-c2cnn([C@H]3CCOC3)c2)c1` [Example 12, (S)-3,3-dimethyl-N-(6-methyl-5-((2-(1-(tetrahydrofuran-3-yl)-1H-pyrazol-4-yl)pyridin-4-yl)oxy)pyridin-2-yl)-2-oxopyrrolidine-1-carboxamide]: the figures for the IC50 (in experiment [1] (setting [2]); in experiment [1] (setting [3]); against CSF-1R) were 134 nM, 158 nM and 71.7 nM, respectively.

On to `CCc1nc(NC(=O)N2CCC(C)(C)C2=O)ccc1Oc1ccnc(-c2cnn(C)c2)c1` [Example 3, N-(6-ethyl-5-((2-(1-methyl-1H-pyrazol-4-yl)pyridin-4-yl)oxy)pyridin-2-yl)-3,3-dimethyl-2-oxopyrrolidine-1-carboxamide], for which the IC50 was determined as 687 nM in experiment [1] (setting [2]), 667 nM in experiment [1] (setting [3]) and 229 nM against CSF-1R.

On to `Cc1nc(NC(=O)N2CCC(C)(C)C2=O)ccc1Oc1ccnc(NC(=O)N2CCN(C)CC2)c1` [Example 24, N-(4-((6-(3,3-dimethyl-2-oxopyrrolidine-1-carboxamido)-2-methylpyridin-3-yl)oxy)pyridin-2-yl)-4-methylpiperazine-1-carboxamide], for which the 50% inhibitory concentration (IC50) in experiment [1] (setting [2]) was 164 nM; in experiment [1] (setting [3]) it was 221 nM; on CSF-1R, 56.6 nM.

`Cc1nc(NC(=O)N2CCC(C)(C)C2=O)ccc1Oc1ccnc(-c2cn[nH]c2)c1` [Example 9, N-(5-((2-(1H-pyrazol-4-yl)pyridin-4-yl)oxy)-6-methylpyridin-2-yl)-3,3-dimethyl-2-oxopyrrolidine-1-carboxamide]: the results for the concentration for half-maximal inhibition (IC50) (in experiment [1] (setting [2]); in experiment [1] (setting [3]); on CSF-1R) were 193 nM, 216 nM and 80.2 nM, respectively.

Take `CC(=O)Nc1cc(Oc2ccc(NC(=O)N3CCC(C)(C)C3=O)nc2C)ccn1` [Example 23, N-(5-((2-acetylamidopyridin-4-yl)oxy)-6-methylpyridin-2-yl)-3,3-dimethyl-2-oxopyrrolidine-1-carboxamide]: the figures for the half-maximal inhibitory concentration (IC50) (in experiment [1] (setting [2]); in experiment [1] (setting [3]); on CSF-1R) were 384 nM, 620 nM and 83 nM, respectively.

In the case of `CCCn1cc(-c2cc(Oc3ccc(NC(=O)N4CCC(C)(C)C4=O)nc3C)ccn2)cn1` [Example 14, 3,3-dimethyl-N-(6-methyl-5-((2-(1-propyl-1H-pyrazol-4-yl)pyridin-4-yl)oxy)pyridin-2-yl)-2-oxopyrrolidine-1-carboxamide], the IC50 came to 115 nM in experiment [1] (setting [2]), 118 nM in experiment [1] (setting [3]) and 46.4 nM against CSF-1R.

Regarding `Cc1nc(NC(=O)N2CCC(C)(C)C2=O)ccc1Oc1ccnc(-c2cnn(C)c2)n1` [Example 22, 3,3-dimethyl-N-(6-methyl-5-((2-(1-methyl-1H-pyrazol-4-yl)pyrimidin-4-yl)oxy)pyridin-2-yl)-2-oxopyrrolidine-1-carboxamide], the values for the IC50 (in experiment [1] (setting [2]); in experiment [1] (setting [3]); on CSF-1R) were 500 nM, 500 nM and 249 nM, respectively.

As to `COCCn1cc(-c2cc(Oc3ccc(NC(=O)N4CCC(C)(C)C4=O)nc3C)ccn2)cn1` [Example 7, N-(5-((2-(1-(2-methoxyethyl)-1H-pyrazol-4-yl)pyridin-4-yl)oxy)-6-methylpyridin-2-yl)-3,3-dimethyl-2-oxopyrrolidine-1-carboxamide], the IC50 turned out to be 203 nM in experiment [1] (setting [2]), 222 nM in experiment [1] (setting [3]) and 72.5 nM against CSF-1R.

For the compound `Cc1nc(NC(=O)N2CCC(C)(OCc3ccccc3)C2=O)ccc1Oc1ccnc(-c2cnn(C)c2)c1` (stereo not shown) [Example 36, 3-(benzyloxy)-3-methyl-N-(6-methyl-5-((2-(1-methyl-1H-pyrazol-4-yl)pyridin-4-yl)oxy)pyridin-2-yl)-2-oxopyrrolidine-1-carboxamide], the figures for the 50% inhibitory concentration (IC50) in experiment [1] (setting [4]) and in experiment [1] (setting [5]) were 500 nM and 727 nM, respectively.

`CNc1cc(Oc2ccc(NC(=O)N3CCC(C)(C)C3=O)nc2C)ccn1` [Example 42, 3,3-dimethyl-N-(6-methyl-5-((2-(methylamino)pyridin-4-yl)oxy)pyridin-2-yl)-2-oxopyrrolidine-1-carboxamide]: the 50% inhibitory concentration (IC50) is over 2000 nM in experiment [1] (setting [2]), over 2000 nM in experiment [1] (setting [3]) and 2280 nM against CSF-1R.

Consider `Cc1nc(NC(=O)N2CCC(C)(C)C2=O)ccc1Oc1ccnc(-c2cnn(C3CCN(C)C3)c2)c1` (stereo not shown) [Example 17], for which the IC50 against CSF-1R is 101 nM.

For `Cc1ncc(-c2cc(Oc3ccc(NC(=O)N4CCC(C)(C)C4=O)nc3C)ccn2)s1` [Example 5, 3,3-dimethyl-N-(6-methyl-5-((2-(2-methylthiazol-5-yl)pyridin-4-yl)oxy)pyridin-2-yl)-2-oxopyrrolidine-1-carboxamide], the IC50 in experiment [1] (setting [2]) was 334 nM; in experiment [1] (setting [3]), 454 nM; at CSF-1R, 54.7 nM.

Regarding `Cc1nc(NC(=O)N2CCCC2=O)ccc1Oc1ccnc(-c2cnn(C)c2)c1` [Example 38, N-(6-methyl-5-((2-(1-methyl-1H-pyrazol-4-yl)pyridin-4-yl)oxy)pyridin-2-yl)-2-oxopyrrolidine-1-carboxamide], the IC50 against CSF-1R was 1470 nM.

Turning to `Cc1nc(NC(=O)N2CCC(C)(C)C2=O)ccc1Oc1ccnc(-c2cnn(C3COC3)c2)c1` [Example 18, 3,3-dimethyl-N-(6-methyl-5-((2-(1-(oxetan-3-yl)-1H-pyrazol-4-yl)pyridin-4-yl)oxy)pyridin-2-yl)-2-oxopyrrolidine-1-carboxamide], the IC50 in experiment [1] (setting [4]) was found to be 125 nM; in experiment [1] (setting [5]) it was 114 nM.
